Read-outs that look alike come from different tables or passages of the source.
Test system: phenyl-p-benzoquinone induced writhing in mice
Assay: phenyl-p-benzoquinone induced writhing test in mice (antiphenylquinone writhing), oral, with isobologram analysis
Type: in vivo, mouse (male CF1)
Conditions: 20 min; for ED50: read-out: ED50 dose; for % mice blocked: oral
Description: The phenyl-p-benzoquinone induced writhing test in mice [H. Blumberg et al., Proc. Soc. […] The method simply consists of reading the % ED50 DOSE for each dose ratio on the best fit regression analysis curve from the mouse isobologram, multiplying each component by its effective species dose, and then forming the ratio of the amount of nalbuphine to zomepirac. […] [E. W. Pelikan, The Pharmacologist, 1, 73 (1959).]
All solutions are prepared fresh daily.
Each mouse is used only once, then discarded.
In order to study the interaction between nalbuphine and zomepirac, 6 precise dosage ratios of nalbuphine hydrochloride and zomepirac are selected.
The nature of the analgetic interaction (addition, synergism, or antagonism) is determined by graphing the results in a Loewe isobologram [S. Loewe, Pharm. Rev. 9:237-242, (1957)]. The isobologram is a quantitative method for measuring interactions between drugs where dose-effect relationships are depicted in a multi-dimensional array with lines connecting dose pairs that are equieffective in relationship to a common pharmacological endpoint. In this instance, the antiphenylquinone writhing test is used to estimate a common level of analgesic activity (ED50 dose) for the two component drugs separately and for each fixed dose-ratio combination.
If such substitution increases the response, the mixing together of the compounds is said to potentiate their effects and synergism exists.
Consider ED50 doses of mixtures of X units of compound B with Y units of compound A, whose ED50 doses are β and α, respectively. Given the hypothesis of additivity, all doses of mixtures satisfying the straight line relation,
will be ED50 doses. To test the hypothesis of additivity, ED50 doses of mixtures are estimated through probit analysis of data from experiments run at various ratios of A to B. Linear and curvilinear regression models are fitted to the data to estimate the amounts of A in respective ED50 doses, given the amount of B, (or, conversely, the amount of B, given A).
The regression is fitted to the data by the method of least squares. Residual squared deviations about the line of best fit are minimized in directions along lines from the origin through respective data points on the isobologram, these lines making angles with X-axis, tan^-1 (Y/X). This is accomplished by a transformation prior to the […] analysis. Its inverse is applied to transform the coordinates of the regression curve back to the X,Y coordinates of the isobologram.
A statistically significant regression will refute the hypothesis.
The method of least squares utilizes jointly the information contained in all of the separate data points. Statistical significance of the curvilinearity of the regression model establishes the existence of synergism (or antagonism) of the compounds in the biological system studied. The parameters in the model describe its intensity over the range of mixture ratios, from 0 to 1, the nature of which is seen readily when the regression is plotted on the isobologram.

Structure (SMILES) | ED50 (Mus musculus, po) [mg/kg] | % mice blocked (nalbuphine HCl 2.75 + zomepirac sodium 0 mg/kg) [%] | % mice blocked (nalbuphine HCl 5.5 + zomepirac sodium 0 mg/kg) [%] | % mice blocked (nalbuphine HCl 11 + zomepirac sodium 0 mg/kg) [%] | % mice blocked (nalbuphine HCl 22 + zomepirac sodium 0 mg/kg) [%] | % mice blocked (nalbuphine HCl 44 + zomepirac sodium 0 mg/kg) [%] | ED50 (drug alone, twenty minutes post oral dosing, mouse antiphenylquinone writhing test) [mg/kg] | % mice blocked (nalbuphine HCl 0 + zomepirac sodium 0.29 mg/kg) [%] | % mice blocked (nalbuphine HCl 0 + zomepirac sodium 0.58 mg/kg) [%] | % mice blocked (nalbuphine HCl 0 + zomepirac sodium 1.16 mg/kg) [%] | % mice blocked (nalbuphine HCl 0 + zomepirac sodium 2.32 mg/kg) [%]
Oc1ccc2c3c1O[C@H]1[C@@H](O)CC[C@@]4(O)[C@@H](C2)N(CC2CCC2)CC[C@]314 [Nalbuphine, (-)-17-(cyclobutylmethyl)-4,5α-epoxymorphinan-3,6α,14-triol] | 12 | 15.6 | 24.4 | 62.2 | 68.9 | 84.4 |  |  |  |  | 
Cc1cc(CC(=O)O)n(C)c1C(=O)c1ccc(Cl)cc1 [Zomepirac Sodium, 5-(4-chlorobenzoyl)-1,4-dimethyl-1H-pyrrole-2-acetic acid] |  |  |  |  |  |  | 1.66 | 13.3 | 20.0 | 31.1 | 75.6

Reference: patent publication US4407805A, “Analgesic mixture of nalbuphine and zomepirac” (E. I. Du Pont de Nemours and Company, priority 1982, dated 1983)
